Assay results taken from patent US8785400B2, “Methods and compositions relating to islet cell neogenesis” (CureDM Group Holdings, LLC, priority 2006, dated 2014).

Experiments:
type 1 diabetes patients = conditions: single course; after onset of type 1 diabetes, some patients; cited from earlier work
[1] = doses up to 10,000 IU/day; cited from earlier work
[2] = tested on: human pancreatic progenitor cells; experiment: Inverted microscopy of human ductal/progenitor tissue cultures (Example 4); format: cell-based
[3] = tested on: streptozocin-induced diabetic mouse; experiment: Streptozocin-induced diabetic mouse (Example 6); format: in vivo; conditions: streptozocin mice; for mean reduction in glucose: from baseline, placebo 9.5%
Source text: The streptozocin-induced diabetic mouse is a convenient animal model of type 1 diabetes because researchers are able to chemically induce diabetes under controlled conditions rather than waiting for mice to become diabetic naturally or by forcing diabetes through prescribed obesity. Based on experience with the streptozocin model in the rat, a high degree of variability was anticipated for the induction of the disease in mice and therefore 60 mice were induced with streptozocin. Mice were injected intraperitoneally with streptozocin at 40 mg/kg in citrate buffer, pH4.5, on 5 consecutive days in an attempt to render them diabetic. A mouse was considered diabetic once its blood glucose level was greater than 16.7 mmol/L (300 mg/dL) for at least 1 week. If the blood glucose level of any animal became too high (>400 mg/dL) the animal was treated with an effective amount of insulin. In this example, 60 male mice, ranging from 6-8 weeks old at the outset of the study, were treated with streptozocin as described above. Those mice that were declared diabetic were then used to test the effectiveness of HIP2 as compared to other test agents.
Animals were group housed in compliance with the National Research Council “Guide for the Care and Use of Laboratory Animals”. The animals received 12 hours light/12 hours dark, except when room lights were turned on during the dark cycle to accommodate study procedures. Room temperature was maintained between 18 to 26° C. at all times. Relative humidity was maintained between 30-70% at all times. All animals were given access to Harlan Teklad Rodent Diet or equivalent and tap water via water bottle. Animals were allowed to acclimate to their new environment for a minimum of 7 days prior to first dosing.
Mice were randomly divided and assigned to study groups. Each study group was assigned treatment with one of 5 test agents (see Treatment section below). Prior to being treated, each mouse was tested for diabetes via monitoring their blood glucose levels. After confirmation that the mice were diabetic (blood glucose levels greater than 16.7 mmol/L (300 mg/dL) for at least 1 week) the mice were dosed with their respective test agent.
Each study group received doses of one of the following test agents: HIP2, HIP1, HIP, Hamster INGAP (SEQ ID NO:1) or isotonic saline “Vehicle” (0.9% NaCl) (negative control). Mice were given doses of their respective agent interperitoneally twice daily (am and pm, +/−2 hours for each administration) at 250 ug/dose, in 100 ul dose volume, for 28 consecutive days. Test agents were prepared once daily by dissolving the appropriate amount of test agent in isotonic saline to result in a 2.5 mg/ml solution. Blood glucose levels were tested every 3 days, at the same time each day, using a glucometer. If the blood glucose level in any animal became too high, the animal was treated with insulin. At the end of the treatment, all surviving animals were euthanized by CO2 asphyxiation following terminal blood collection. Blood samples were collected under CO2 cardiocentesis. The plasma was separated and then frozen at −80° C. For histological analysis, the pancreas from each mouse was removed and snap-frozen.
Blood glucose levels are measured every 3 days and tracked to evaluate differences in glucose levels.

[4] = tested on: pancreatic islets of treated mice; experiment: Quantitative immunohistochemistry image analysis of mouse pancreata (Example 7); format: in vivo
Source text: The islet mass of the placebo group was 854,362 μm (2) compared with 2,161,782 μm (2) in HIP-treated mice.
Islet size was not different between HIP treated and control group, whereas, islet number and mass was increased.

diabetic patients = conditions: cited from earlier work

## hOKT3gamma1 (Ala-Ala): anti-CD3 monoclonal antibody
Type 1 diabetes patients
  duration of improvement in C-peptide responses and clinical parameters: at least 2 years

## C=C1CC[C@H](O)C/C1=C/C=C1\CCC[C@]2(C)[C@@H]([C@H](C)CCCC(C)C)CC[C@@H]12 [Vitamin D, cholecalciferol]
[1]
  adverse effects: No adverse effects

## HIP: Human proIslet Peptide, 15-mer human counterpart of the hamster INGAP peptide (SEQ ID NO:2) (IGLHDPTQGTEPNGE; Fragment of naturally occurring human REG3 protein)
[2]; day 2 of treatment (day 12)
  morphology of progenitor tissue cultures (FIG. 7A): forming a nidus of new insulin producing islets
[2]; day 6 of treatment (day 18)
  morphology of progenitor tissue cultures (FIG. 7B): forming insulin producing islet like structure
[3]
  overall insulin requirements lower compared to controls: 32%
  mean reduction in glucose: 26.9%
[3]; compared to placebo
  insulin requirements (and rate of decrease): significant reduction
[4]; mouse, in vivo
  islet size vs placebo/control: not statistically different
[4]; p=0.022
  number of islets counted greater than placebo group: 62%
[4]; p=0.05
  total islet mass greater than placebo group: 153%
[4]; placebo 280
  islets counted: 454
[4]; placebo 854,362
  islet mass: 2,161,782 μm (2)
[4]; vs control
  total islet mass (qualitative): increased
  total islet number (qualitative): increased

## hamster INGAP: non-human islet neogenesis associated peptide, hamster sequence, positive control (SEQ ID NO:1) (IGLHDPSHGTLPNGS; Fragment of naturally occurring hamster INGAP protein)
[3]
  overall insulin requirements lower compared to controls: 14%
  mean reduction in glucose: 20%
Diabetic patients; 300 mg/day, Phase II
  patients with a >50% increase in GAD65 antibody titers: 22 % of the patients
Diabetic patients; 600 mg/day
  C-peptide secretion: increase in C-peptide secretion
Diabetic patients; Phase I and II trials
  tolerability: well tolerated
Diabetic patients; Phase II trial, diabetic patients
  drop out due to injection site reactions: high drop out
Diabetic patients; Phase II trial
  effectiveness: Little effectiveness
Diabetic patients; type 2 diabetes patients
  hemoglobin A1C: fell
